From patent publication US20260334439A1, “BCAT2 INHIBITORS” (Agios Pharmaceuticals, Inc., priority 2023, published 2026) come the findings set out here.

The structures appear in SMILES notation.

The target of assay [1] is T1, BCAT2 (Homo sapiens, UniProt O15382).
T1 sequence (O15382 28-392): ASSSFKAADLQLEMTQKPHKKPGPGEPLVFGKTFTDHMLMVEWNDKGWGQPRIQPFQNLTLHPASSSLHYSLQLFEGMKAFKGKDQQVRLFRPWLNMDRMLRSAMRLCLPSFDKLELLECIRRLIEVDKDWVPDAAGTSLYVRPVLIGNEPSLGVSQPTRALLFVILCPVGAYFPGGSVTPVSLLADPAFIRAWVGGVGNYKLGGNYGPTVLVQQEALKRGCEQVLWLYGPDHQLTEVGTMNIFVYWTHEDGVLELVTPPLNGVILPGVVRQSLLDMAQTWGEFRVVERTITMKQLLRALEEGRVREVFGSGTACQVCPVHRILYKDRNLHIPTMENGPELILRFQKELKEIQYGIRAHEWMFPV
Put plainly: BCAT2 cell inhibition using engineered A549 cells (MUT KO, BCAT1 KO; 13C6-KMV formation by LC-MS/MS). Also on record: expressed endogenous BCAT2; endogenous in cells; host or cells: A549 cells, MUT knockout and BCAT1 knockout. The class given is cell-based. An excerpt: Endogenous Methylmalonyl-CoA Mutase (MUT) and Branched Chain Aminotransferase 1 (BCAT1) in A549 cells was knocked out by CRISPR/CAS9 using the targeting system from TransOMIC Technologies. The following guide sequence was cloned into pCLIP-ALL-EFS-Blast vector to target human MUT: […] (SEQ ID NO: 35). The following guide sequence was cloned into pCLIP-ALL-EFS-Puro vector to target human BCAT1: […] (SEQ ID NO: 36). The resulting plasmids were co-transfected into 293T cells with VSV-G, P-PEX, and Fugene-6. Lentivirus was harvested and A549 cells were first transduced with lentivirus targeting MUT and polybrene. After genetic selection with blasticidin clonal selection was performed and validated via western blot analysis to confirm MUT was no longer expressed. These MUT KO cells were then transduced with lentivirus targeting BCAT1 and polybrene. After selection with puromycin clonal selection was performed and clones were validated via western blot analysis to confirm BCAT1 was no longer expressed in these cells. The result was an engineered A549 cell line that expressed endogenous BCAT2.
For KMV cell assays, on day 1, 25,000 cells/100 μL EMEM (10% FBS) were seeded in each well of a 96-well plate. On day 2, medium was replaced with 50 μL fresh EMEM (10% dialyzed FBS) containing 2× the assay concentration of experimental compound. After 15 minutes, 50 μL of 800 uM ^15N,^13C6-Isoleucine in EMEM (10% dialyzed FBS) was added to each well and incubated for 24 hours. On day 3, 50 μL of media from each well was collected and transferred to another 96-well plate for ^13C6-3-Methyl-2-Oxopentanoic Acid (KMV) analysis via LC-MS/MS. In the remaining assay wells 50 μL of Promega Glo CTG reagent was added and luminescence was measured as a cell viability readout.
For LC-MS/MS analysis 5 μL of cell assay media from each well was transferred to a 96-well plate and 45 μL of ACN:0.1% NaOH (50:50, v/v)^+0.20 nM d8-KMV was added and mixed on a shaker. 15 μL was transferred to a new 96-well plate and 15 μL of 10 mg/mL PFBHA solution was added and mixed on the shaker. The reaction was placed on ice for 30 minutes and quenched with 10 μL of ACN: Acetone (50:50, v/v) on a shaker. The resulting mixture was diluted with 100 μL of ACN:0.1% NaOH (50:50, v/v) on a shaker. 10 μL of sample were injected on the Shimadzu 20AD LC-MS/MS to quantify ^13C6-KMV.
Where a compound was tested multiple times, the average value of the tests is reported.

Assay [2] has as its target T1, BCAT2. Put plainly: BCAT2 in vitro enzyme inhibition assay (hBCAT2, glutamate dehydrogenase/diaphorase/resazurin coupled fluorescence read). The note with it: hBCAT2, 1 h preincubation at 25° C., one hour reaction; average where tested multiple times. The class given is biochemical. The method in brief: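 hBCAT2 (0.33 μg/mL in mix) preincubated 1 h at 25 °C with compound (top 100 μM, 3-fold, 10 points) in Tris pH 8.0/NaCl/BSA; substrate mix added (L-leucine, α-ketoglutarate, GDH, NAD, diaphorase, resazurin), quenched with SDS after 1 h, fluorescence Ex 540/Em 590; duplicates, repeat tests averaged.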

Turning to `CC(=O)N1CC(N2Cc3ccc(F)cc3C2=O)CC(n2c(-c3c(F)cccc3F)nc3cnc(-c4nc[nH]n4)cc32)C1` (stereo not drawn) [Example 201, 2-(1-acetyl-5-(2-(2,6-difluorophenyl)-6-(1H-1,2,4-triazol-3-yl)-1H-imidazo[4,5-c]pyridin-1-yl)piperidin-3-yl)-6-fluoroisoindolin-1-one], the half-inhibitory concentration (IC50) in assay [1] and in assay [2] was less than 100 nM in each case.

Regarding `O=C(N[C@H]1CCC[C@@H](n2c(-c3ccccc3F)nc3cnc(-c4nc[nH]n4)cc32)C1)c1cc(Cl)ccc1OCCO` [Example 34, 5-chloro-N-((1S,3R)-3-(2-(2-fluorophenyl)-6-(1H-1,2,4-triazol-3-yl)-1H-imidazo[4,5-c]pyridin-1-yl)cyclohexyl)-2-(2-hydroxyethoxy)benzamide], the concentration for half-maximal inhibition (IC50) in assay [1] and in assay [2] was less than 100 nM throughout.

For `O=C1c2cc(F)ccc2CN1[C@H]1CCC[C@@H](n2c(-c3ccccc3F)nc3cnc(-n4nccn4)cc32)[C@@H]1O` [Example 185, 6-fluoro-2-((1S,2S,3R)-3-(2-(2-fluorophenyl)-6-(2H-1,2,3-triazol-2-yl)-1H-imidazo[4,5-c]pyridin-1-yl)-2-hydroxycyclohexyl)isoindolin-1-one], the IC50 in assay [1] and in assay [2] was less than 100 nM in each case.

`N#Cc1ccc(F)cc1C(=O)N[C@H]1CCC[C@@H](n2c(-c3ccccc3F)nc3cnc(-c4nc[nH]n4)cc32)C1` [Example 98, 2-cyano-5-fluoro-N-((1S,3R)-3-(2-(2-fluorophenyl)-6-(4H-1,2,4-triazol-3-yl)-1H-imidazo[4,5-c]pyridin-1-yl)cyclohexyl)benzamide]: the concentration for half-maximal inhibition (IC50) in assay [1] and in assay [2] was less than 100 nM in each case.

Regarding `O=C1c2ccc(F)cc2CN1[C@H]1CCC[C@@H](n2c(-c3ccccc3F)nc3cnc(-c4nc[nH]n4)cc32)C1` [Example 176, 5-fluoro-2-((1S,3R)-3-(2-(2-fluorophenyl)-6-(1H-1,2,4-triazol-3-yl)-1H-imidazo[4,5-c]pyridin-1-yl)cyclohexyl)isoindolin-1-one], the figures for the IC50 in assay [1] and in assay [2] were 100 to 500 nM and less than 100 nM, respectively.

As to `CC(C)Cc1nc2cnc(-c3nc[nH]n3)cc2n1[C@@H]1CCC[C@H](NC(=O)c2cc(Cl)ccc2OCCO)C1` [Example 78, 5-chloro-2-(2-hydroxyethoxy)-N-((1S,3R)-3-(2-isobutyl-6-(1H-1,2,4-triazol-3-yl)-1H-imidazo[4,5-c]pyridin-1-yl)cyclohexyl)benzamide], the results for the IC50 in assay [1] and in assay [2] were 100 to 500 nM and less than 100 nM, respectively.

As to `O=C(N[C@H]1CCC[C@@H](n2c(-c3ccccc3F)nc3ccc(-c4nc[nH]n4)cc32)C1)c1cc(F)ccn1` [Example 226, 4-fluoro-N-((1S,3R)-3-(2-(2-fluorophenyl)-6-(1H-1,2,4-triazol-3-yl)-1H-benzo[d]imid-azol-1-yl)cyclohexyl)picolin-amide], the half-inhibitory concentration (IC50) (in general, the concentration at which inhibition is half-maximal) in assay [1] was 100 to 500 nM; in assay [2], less than 100 nM.

With `CO[C@H]1C[C@H](NC(=O)c2cc(Cl)ccn2)C[C@H](n2c(-c3ccccc3F)nc3cnc(-c4nc[nH]n4)cc32)C1` [Example 116, 4-chloro-N-((1R,3S,5S)-3-(2-(2-fluorophenyl)-6-(1H-1,2,4-triazol-3-yl)-1H-imidazo[4,5-c]pyridin-1-yl)-5-methoxycyclohexyl)picolinamide], the IC50 in assay [1] and in assay [2] was less than 100 nM throughout.

Turning to `O=C(N[C@H]1CCC[C@@H](n2c(-c3ccccc3F)nc3cnc(-c4nc[nH]n4)cc32)C1)c1cc(Cl)ccc1OCCN1CCCC1` [Example 35, 5-chloro-N-((1S,3R)-3-(2-(2-fluorophenyl)-6-(1H-1,2,4-triazol-3-yl)-1H-imidazo[4,5-c]pyridin-1-yl)cyclohexyl)-2-(2-(pyrrolidin-1-yl)ethoxy)benzamide], the IC50 was in the range of 500 to 1000 nM in assay [1] and 100 to 500 nM in assay [2].

For the compound `CN1C[C@H](NC(=O)c2cc(Cl)ccc2F)C[C@H](n2c(-c3ccccc3F)nc3cnc(-c4nc[nH]n4)cc32)C1` [Example 145, 5-chloro-2-fluoro-N-((3R,5S)-5-(2-(2-fluorophenyl)-6-(1H-1,2,4-triazol-3-yl)-1H-imidazo[4,5-c]pyridin-1-yl)-1-methylpiperidin-3-yl)benzamide], the values for the IC50 in assay [1] and in assay [2] were 100 to 500 nM and less than 100 nM, respectively.

Turning to `CC(C)Oc1ccc(Cl)cc1C(=O)N[C@H]1CCC[C@@H](n2c(-c3ccccc3F)nc3cnc(-c4nc[nH]n4)cc32)C1` [Example 18, 5-chloro-N-((1S,3R)-3-(2-(2-fluorophenyl)-6-(1H-1,2,4-triazol-3-yl)-1H-imidazo[4,5-c]pyridin-1-yl)cyclohexyl)-2-isopropoxybenzamide], the half-inhibitory concentration (IC50) in assay [1] and in assay [2] was less than 100 nM in each case.

Regarding `CN1C[C@H](NC(=O)c2cc(F)ccn2)C[C@H](n2c(-c3ccccc3OC(F)F)nc3cnc(-c4nc[nH]n4)cc32)C1` [compound 139], the IC50 in assay [1] and in assay [2] was less than 100 nM each time.

Consider `CC(C)Cc1nc2cnc(-n3nccn3)cc2n1[C@@H]1CCC[C@H](NC(=O)c2cc(Cl)ccc2OCCO)C1` [Example 57, 5-chloro-2-(2-hydroxyethoxy)-N-((1S,3R)-3-(2-isobutyl-6-(2H-1,2,3-triazol-2-yl)-1H-imidazo[4,5-c]pyridin-1-yl)cyclohexyl)benzamide], for which the half-maximal inhibitory concentration (IC50) in assay [1] is 500 to 1000 nM; in assay [2], less than 100 nM.

For the compound `CCOc1ccc(Cl)cc1C(=O)N[C@H]1CCC[C@@H](n2c(-c3ncccc3F)nc3cnc(-c4nc[nH]n4)cc32)C1` [Example 27, 5-chloro-2-ethoxy-N-((1S,3R)-3-(2-(3-fluoropyridin-2-yl)-6-(1H-1,2,4-triazol-3-yl)-1H-imidazo[4,5-c]pyridin-1-yl)cyclohexyl)benzamide], the half-maximal inhibitory concentration (IC50) in assay [1] and in assay [2] was less than 100 nM in each case.

For the compound `COc1ccc(Cl)cc1C(=O)N[C@H]1C[C@H](OC)C[C@@H](n2c(-c3ccccc3F)nc3cnc(-c4nc[nH]n4)cc32)C1` [Example 106, 5-chloro-N-((1R,3S,5S)-3-(2-(2-fluorophenyl)-6-(1H-1,2,4-triazol-3-yl)-1H-imidazo[4,5-c]pyridin-1-yl)-5-methoxycyclohexyl)-2-methoxybenzamide], the IC50 in assay [1] and in assay [2] was less than 100 nM in each case.

With `CO[C@H]1C[C@H](NC(=O)c2cc(F)ccc2F)C[C@H](n2c(-c3ccccc3F)nc3cnc(-c4nc[nH]n4)cc32)C1` [Example 122, 2,5-difluoro-N-((1R,3S,5S)-3-(2-(2-fluorophenyl)-6-(1H-1,2,4-triazol-3-yl)-1H-imidazo[4,5-c]pyridin-1-yl)-5-methoxycyclohexyl)benzamide], the half-maximal inhibitory concentration (IC50) in assay [1] and in assay [2] was less than 100 nM each time.

`COc1ccccc1C(=O)N[C@H]1CCC[C@@H](n2c(-c3ccccc3F)nc3cnc(-c4nc[nH]n4)cc32)C1` [Example 5, N-((1S,3R)-3-(2-(2-fluorophenyl)-6-(1H-1,2,4-triazol-3-yl)-1H-imidazo[4,5-c]pyridin-1-yl)cyclohexyl)-2-methoxybenzamide]: the IC50 in assay [1] and in assay [2] was less than 100 nM each time.

As for `COc1cccc(F)c1C(=O)N[C@H]1CCC[C@@H](n2c(-c3ccccc3F)nc3cnc(-c4nc[nH]n4)cc32)C1` [Example 2, 2-fluoro-N-((1S,3R)-3-(2-(2-fluorophenyl)-6-(1H-1,2,4-triazol-3-yl)-1H-imidazo[4,5-c]pyridin-1-yl)cyclohexyl)-6-methoxybenzamide], the IC50 was greater than 1000 nM in assay [1] (read-out: BCAT2 Cell Inhibition (IC50), engineered A549 cells, 24 hours, 13C6-KMV in media, average where tested multiple times) and less than 100 nM in assay [2].
